# Data from patent US10827755B2, “Insecticidal compositions and methods” (priority 2015, dated 2020).
# How the values were obtained:
# Assay type in all cases: in vivo
# Soybean Looper (SL) = assay: Insect feeding assay (Example 4), soybean looper; set-up: key: “+” represents mortality or stunting significantly different compared to the untreated control; “−” represents no significant difference in mortality or stunting compared to the untreated control; settings: 0.05 mg/mL diet overlay, 6 days, 27° C.
# Method: (§1) For evaluating control of insect species in this example, the test unit consisted of a 96-well bioassay plate filled with species-specific artificial diet. Compounds were dissolved in DMSO and added as diet overlay to the indicated concentration and dried/maintained overnight before infestation. Once dry, the bioassay plates were infested with a single neonate larva (nymph for lygus) per well. The bioassay plates were held for 6 days in an incubator at 27° C. and 50% relative humidity. Each well was assessed for infestation and contamination. Wells that were contaminated or not infested were not included in the stunting and mortality assessment. A stunting score was reported based on the relative size of the survivors within the 8-well column with averaging across a 3 column replicate. Untreated control insects were used as a reference.
# [1] = test system: Western Tarnished Plantbug; assay: Insect feeding assay (Example 4), Western tarnished plantbug; set-up: key: “+” represents mortality or stunting significantly different compared to the untreated control; “−” represents no significant difference in mortality or stunting compared to the untreated control; settings: 0.05 mg/mL diet overlay, nymph, 6 days, 27° C.
# Method: as §1
# Fall Armyworm (FAW) = assay: Insect feeding assay (Example 4), fall armyworm; set-up: key: “+” represents mortality or stunting significantly different compared to the untreated control; “−” represents no significant difference in mortality or stunting compared to the untreated control; settings: 0.05 mg/mL diet overlay, 6 days, 27° C.
# Method: as §1
# [2] = test system: Yellow Fever Mosquito (YEW); assay: Insect feeding assay (Example 4), yellow fever mosquito; set-up: key: “+” represents mortality or stunting significantly different compared to the untreated control; “−” represents no significant difference in mortality or stunting compared to the untreated control; settings: 0.05 mg/mL diet overlay, 6 days, 27° C.
# Method: as §1
# Diamondback Moth (DBM) [3] = assay: Insect feeding assay (Example 4), diamondback moth; set-up: key: “+” represents mortality or stunting significantly different compared to the untreated control; “−” represents no significant difference in mortality or stunting compared to the untreated control; settings: 0.05 mg/mL diet overlay, 6 days, 27° C.
# Method: as §1
# [4] = test system: Western Corn Rootworm (WCR); assay: Insect feeding assay (Example 4), Western corn rootworm; set-up: key: “+” represents mortality or stunting significantly different compared to the untreated control; “−” represents no significant difference in mortality or stunting compared to the untreated control; settings: 0.05 mg/mL diet overlay, 6 days, 27° C.
# Method: as §1
# [5] = test system: Western Corn Root Worm (WCR); assay: Insect feeding assay (Example 3), Western corn rootworm; set-up: key: A “+” score was given to samples which showed any level of stunting and/or mortality higher than that of the untreated controls; A “−” score was given to samples which showed no activity; settings: 0.1 mg/mL diet overlay, 6 days, 27° C., summary of three replicates
# Method: (§2) For evaluating control of insect species, the test unit consisted of a 96-well bioassay plate filled with a species-specific artificial diet. Compounds were dissolved in DMSO and added as diet overlay to the indicated concentration, and dried/maintained overnight before infestation. Once dry, the bioassay plates were infested with a single neonate larva (nymph for lygus) per well. The bioassay plates were then held for 6 days in an incubator at 27° C. and 50% relative humidity. Sample response was then visually assessed based on mortality and stunting of the insect. […] Western corn rootworm data represents a summary of three replicates. Data for all other insect species represents a summary of two replicates.
# [6] = test system: Yellow Fever Mosquito (YFM); assay: Insect feeding assay (Example 3), yellow fever mosquito; set-up: key: A “+” score was given to samples which showed any level of stunting and/or mortality higher than that of the untreated controls; A “−” score was given to samples which showed no activity; settings: 0.1 mginiL diet overlay, 6 days, 27° C., summary of two replicates
# Method: as §2
# Diamondback Moth (DBM) [7] = assay: Insect feeding assay (Example 3), diamondback moth; set-up: key: A “+” score was given to samples which showed any level of stunting and/or mortality higher than that of the untreated controls; A “−” score was given to samples which showed no activity; settings: 0.1 mg/mL diet overlay, 6 days, 27° C., summary of two replicates
# Method: as §2
Structure (SMILES),SL (0.05 mg/mL) mortality or stunting (Soybean Looper (SL)),WTP (0.05 mg/mL mortality or stunting) [1],FAW (0.05 mg/mL) mortality or stunting (Fall Armyworm (FAW)),YFM (0.05 mg/mL) mortality or stunting [2],DBM (0.05 mg/mL) mortality or stunting (Diamondback Moth (DBM) [3]),WCR (0.05 mg/mL) mortality or stunting [4],WCR (0.1 mg/mL) mortality and stunting score [5],YEM (0.1 mginiL) mortality and stunting score [6],DBM (0.1 mg/mL) mortality and stunting score (Diamondback Moth (DBM) [7])
CSc1ccc(-c2nc(-c3ccc(C)cc3)c(-c3ccc(C)cc3)[nH]2)cc1 [I-ix],+,−,+,−,+,+,,,
Cc1ccc(C)c(-c2nc(-c3c(Cl)cccc3Cl)[nH]c2-c2ccccc2)c1 [I-ii],+,+,+,+,+,,+,+,
CC1CCCCC1NC(=O)c1cn(-c2ccccc2)nc1-c1cccs1 (stereo not drawn) [II-ii],−,−,−,−,−,,,,+
COc1ccc(-c2nc(-c3ccccc3)c(-c3ccccc3)[nH]2)c(OC)c1OC [I-viii],−,−,−,+,+,+,,,
Cn1cc(C(=O)NC2CCSCC2)c(-c2ccccc2Cl)n1 [II-v],,,,,,,,+,
Cn1cc(C(=O)NCCC2CCCO2)c(-c2ccccc2Cl)n1 (stereo not drawn) [II-iv],−,−,−,−,−,,,+,
C=CCNC(=O)c1cn(-c2ccc(C)cc2)nc1-c1ccccc1 [II-i],,,,,+,,,+,+
Cc1ccc(C)c(-c2nc(-c3c(F)cccc3Cl)[nH]c2-c2ccccc2)c1 [I-iii],,,,,,,,+,
O=C(c1ccc(F)cc1)c1ccc(-c2nc(-c3cccc(F)c3)[nH]c2-c2ccccc2)cc1 [I-x],+,+,+,−,+,+,,,
CCOCCNC(=O)c1cn(C)nc1-c1ccccc1Cl [II-iii],−,−,−,−,−,,,+,
CCOc1ccccc1-c1nc(-c2ccccc2)c(-c2ccccc2)[nH]1 [I-v],−,−,−,−,−,,+,,
Cc1cc(C)c(-c2nc(-c3ccccc3)c(-c3ccccc3)[nH]2)c(C)c1 [I-i],−,−,−,−,+,,+,+,
C#CCOc1ccccc1-c1nc(-c2ccccc2)c(-c2ccccc2)[nH]1 [I-vi],−,+,−,+,+,,,,
COc1ccc(-c2nc(-c3ccccc3)c(-c3ccccc3)[nH]2)c(OC)c1 [I-iv],−,−,−,+,+,,+,+,
Clc1cccc(-c2[nH]c(-c3ccc(Cl)cc3Cl)nc2-c2ccccc2)c1 [I-vii],+,−,+,+,+,,,,
